Data from patent EP4748841A1, “BICYCLO[5,6] IMIDAZOLE PYRIMIDONE DERIVATIVE AND PREPARATION METHOD THEREFOR AND USE THEREOF” (Shujing Biopharma Co., Ltd, priority 2023, dated 2025).
Read-outs that look alike come from different tables or passages of the source.

Assay: Liver microsome stability experiment (beagle dog)
Assay type: in vitro ADME
Conditions: for CLint scaled at 1 µM: beagle, dog, liver microsomes, pH 7.4, Beagle dog liver microsomes; for half-life at 1 µM: pH 7.4, Beagle dog liver microsomes
Experimental: This experiment aimed to evaluate the phase I metabolic stability of the compounds of the present disclosure in liver microsomes of SD rats, beagle dogs, cynomolgus monkeys, and humans.
• (1) Buffer preparation: 73.21 g of dipotassium hydrogen phosphate trihydrate and 10.78 g of potassium dihydrogen phosphate were dissolved in 4000 mL of ultrapure water. The pH of the solution was adjusted to within 7.40 ± 0.10 using 10% phosphoric acid or 1 M potassium hydroxide, resulting in a final concentration of 100 mM. • (2) Solution preparation and dilution: Stock solutions of the test compounds at a concentration of 10 mM were prepared in dimethyl sulfoxide (DMSO) and stored at 4 °C, and they were diluted into 100 µM working solutions with pure acetonitrile when used. A stock solution of the control compound testosterone at a concentration of 10 mM was prepared in DMSO and stored at -20 °C, and it was diluted into a 400 µM working solution with pure acetonitrile when used. • (3) Termination solution preparation: The termination solution was an acetonitrile solution containing an internal standard (terfenadine). The prepared termination solution was stored in a refrigerator at 2-8 °C. • (4) Liver microsome solution preparation: Liver microsomes from various species (SD rat, beagle dog, cynomolgus monkey, and human) were diluted into 20× working solutions using 100 mM potassium phosphate buffer. The final concentration of the liver microsomes in the reaction system was 0.5 mg/mL. • (5) Reduced nicotinamide adenine dinucleotide phosphate (NADPH) regeneration system preparation: Appropriate amounts of nicotinamide adenine dinucleotide phosphate (NADP), glucose-6-phosphate (G6P), magnesium chloride (MgCl2), and glucose-6-phosphate dehydrogenase (G6PDH) were weighed to prepare stock solutions at concentrations of 65.33 mM, 330 mM, 300 mM, and 250 Units/mL, respectively. The four stock solutions described above were each added to an appropriate amount of buffer, and the mixture was mixed well by gently inverting up and down. The final concentrations of NADP, G6P, MgCl2, and G6PDH in the NADPH regeneration system were 2.65 mM, 10.2 mM, 6.12 mM, and 2.45 Units/mL, respectively. • (6) Incubation process: The incubation was completed in 96-well plates. Several incubation plates were prepared and named T0, T5, T10, T20, T40, T60, and NCF60, respectively. The first 6 plates corresponded to reaction time points of 0 min, 5 min, 10 min, 20 min, 40 min, and 60 min, respectively. The NCF60 plate was incubated for 60 min with potassium phosphate buffer replacing the NADPH regeneration system solution. Samples under all conditions were prepared in triplicate.
2 µL of the test compound or control compound and 100 µL of microsome working solution (containing 1 mg/mL liver microsome protein) were added to each of the T0, T5, T10, T20, T40, T60, and NCF60 plates, and only the microsome working solution was added to the Blank 60 plate. The plates described above were then pre-incubated in a 37 °C water bath for about 10 min.
After the pre-incubation was completed, 98 µL of the NADPH regeneration system working solution was added to each sample well except for the NCF60 plate and the T0 plate to initiate the reaction, and 98 µL of potassium phosphate buffer was added to each well of the NCF60 plate. Therefore, for the sample wells containing the test sample or control substance working solution, the final concentrations of TC and testosterone in the reaction were 1 µM and 4 µM, respectively, the concentration of liver microsomes was 0.5 mg/mL, and the final concentrations of DMSO and acetonitrile in the reaction system were 0.01% (v/v) and 0.99% (v/v), respectively.
After incubation for an appropriate time (e.g., 5 min, 10 min, 20 min, 40 min, and 60 min), 600 µL of a termination solution (an acetonitrile solution containing 100 ng/mL […]) was added to each test compound sample well and control compound sample well to terminate the reaction. […]

[1] = 0.5 mg/mL, 1 µM, read-out: CL(liver)
[2] = 0.5 mg/mL, 1 µM, read-out: CLint(liver)
[3] = read-out: Clearance rate classification

Row | CLint scaled at 1 µM [1] | CLint scaled at 1 µM [2] | CLint scaled at 1 µM [3] | half-life at 1 µM (0.5 mg/mL, 1 µM) | Compound
1 | 10.5 mL/min/kg | 15.8 mL/min/kg | 13.2 to 72.1 mL/min/kg | 2.1 h | O=c1nc(OCc2cc(F)c(Oc3ccnc(C(F)(F)F)c3)c(F)c2)cc2n1C[C@H]1CCCN21 [Comparative Example 1, reference compound]
2 | < 8 mL/min/kg | < 10.7 mL/min/kg | ≤ 13.2 mL/min/kg | > 3.11 h | O=c1nc(OCc2cc(F)c(Oc3ccnc(C(F)(F)F)c3)c(F)c2)cc2n1C[C@H]1CCN21 [Example 34-R]
